Measured values as given in US20240285769A1, “INJECTABLE, BIODEGRADABLE AND REMOVABLE POLYMER BASED DRUG SUSPENSION FOR ULTRA-LONG-ACTING DRUG DELIVERY” (The University of North Carolina at Chapel Hill, priority 2021, published 2024).

What was measured:
[1] = In vitro drug release studies of ISFIs; type: physicochemical; conditions: ISFI suspension 1:4 PLGA/(NMP:DMSO), 290 mg/g
Method: Sample aliquots (1 mL) were collected at various time points and replaced with fresh release medium. The release medium was completely removed and replaced with fresh medium every week to maintain sink conditions. Drug concentration in the release samples was quantified by HPLC using the method described above. Cumulative drug release was calculated from the HPLC analysis and normalized to the total mass of drug in the implant. All experiments were performed in quadruplicate. ISFIs were prepared with 1:2 w/w PLGA:(NMP/DMPS 1:1) (PLGA MW 27 kDa, 50:50 LA/GA). […] To investigate the effect of polymer MW on CAB release kinetics, two CAB suspension ISFIs were prepared using PLGA (50:50 LA/GA) with MW of 10 kDa and 27 kDa. CAB was loaded at a constant concentration of 250 mg/g as a stable suspension formulation in a 1:2 PLGA/solvent (solvent=NMP/DMSO 1:1 w/w). […] 55 μg/d compared to 13.53 μg/d for PLGA MW 27 kDa. […] The effect of formulation composition and addition of rate controlling polymers like star-PLGA (5-arm 50:50 LA/GA PLGA MW 54 kDa) on drug release kinetics were also investigated. Three formulations were prepared using NMP/DMSO (1:1) as a co-solvent system, PLGA (50:50 LA/GA MW 27 kDa) and PLGA/star-PLGA (9:1 w/w) polymer combination. CAB was loaded at a constant concentration of 300 mg/g in all three formulations. […]

[2] = Preparation and optimization of drug suspension formulations; type: physicochemical
Method: The polymer based drug suspensions were prepared by: (1) Placebo formulation: 50:50 Poly(DL-lactide-co-glycolide) (PLGA), MW 10 or 27 kDa, or Poly(lactic acid) (PLA) MW 10 kDa, was mixed with N-methyl-2-pyrrolidone (NMP) or a combination of NMP and DMSO (e.g. 1:1 v/v) at various weight ratios of PLGA/solvent (w/w) and allowed to dissolve by continuous mixing at room temperature (Placebo). […] (2) Drug loading: […] (3) Depot formation: A sample from the resulting drug-loaded suspension formulation (30 μL, 30±3 mg) was injected into 200 mL of 0.01 M PBS pH 7.4 using a pipette and incubated at 37° C. for 24 h to produce a spherical implant, as an example. […] Of importance, but without being limited to any particular theory or mechanism of action, is the ratio of the polymer:solvent:drug that achieves high drug loading in a stable polymeric suspension formulation and which is correlated to the drug's saturation solubility in the solvent system.

burst release in 24 h ([1]; PBS 37° C.): < 2%
drug release at d3 ([1]; last timepoint analyzed): 3%
suspension formation when loaded above saturation concentration in PLGA/solvent placebo [2]: formed stable syringeable formulations
depot formation when injected into aqueous release medium ([2]; PBS, pH 7.4, 37° C.): formation of stable depots
Structure (SMILES): Cn1c(Cn2ccc(C(F)(F)F)c(Oc3cc(Cl)cc(C#N)c3)c2=O)n[nH]c1=O [DOR, Doravirine]
